How the values were obtained:
IKK-alpha = experiment: KINOMEscan; type: binding; settings: 1000 nM
FER = experiment: KINOMEscan; type: binding; settings: 1000 nM
p38-beta = experiment: KINOMEscan; type: binding; settings: 1000 nM
FGFR4 = experiment: KINOMEscan; type: binding; settings: 1000 nM
FLT3(R834Q) = experiment: KINOMEscan; type: binding; settings: 1000 nM
[1] = tested on: NK cells co-seeded with SK-OV-3 cells; experiment: IFN-γ secretion ELISA, NK cells co-cultured with SK-OV-3 cells in presence of Herceptin; type: cell-based, human; settings: SK-OV-3 co-culture; 0.1 to 3 μM
Protocol: Peripheral blood mononuclear cells (PBMC) were separated from the blood of healthy donors by Ficoll density gradient centrifugation (Histopaque-1077, Sigma-Aldrich). Cells were enriched using a MACS® human NK cell negative-selection isolation kit (Miltenyi Biotec, Germany) according to the manufacturer’s instructions. Purified NK cells were cultured with 1000U/ml IL2 for 48h. […] The concentrations of interferon (IFN)-γ in cell culture supernatants obtained from three independent experiments were detected using commercial ELISA kits (absin, #abs510007), according to the manufacturer’s instructions. The human IFN-γ kit sensitivity was 7.8 pg/ml.

ERN1 = experiment: KINOMEscan; type: binding; settings: 1000 nM
AURKB = experiment: KINOMEscan; type: binding; settings: 1000 nM
LZK = experiment: KINOMEscan; type: binding; settings: 1000 nM
CAMK2D = experiment: KINOMEscan; type: binding; settings: 1000 nM
EPHA3 = experiment: KINOMEscan; type: binding; settings: 1000 nM
NEK9 = experiment: KINOMEscan; type: binding; settings: 1000 nM
Mino cells = experiment: NK-cell-mediated ADCC, LDH release cytotoxicity assay, Rituximab; type: cell-based, human
Protocol: The cytotoxicity of NK cells was measured using the CyQUANT™ LDH Cytotoxicity Assay Kit (Invitrogen™, #C20300) according to the manufacturer’s instructions. Briefly, enriched NK cells (6 × 10^5 /ml) were cultured with the same volume of Mino cell and SK-OV-3 cell (1-2 × 10^4 /ml) in a 96-well plate for 4 h with Rituximab and Herceptin (10 μg/mL) and CHMFL-BTK-85 or PCI32765 at 37°C in a humidified CO2 incubator prior to removal of the supernatant for lactate dehydrogenase (LDH) release measurements. Calculate % Cytotoxicity by using the following formula: %Cytotoxicity = (Compound-treated LDH activity-Spontaneous LDH activity)/(Maximum LDH activity-Spontaneous LDH activity)*100.

YES = experiment: KINOMEscan; type: binding; settings: 1000 nM
AXL = experiment: KINOMEscan; type: binding; settings: 1000 nM
EPHA2 = experiment: KINOMEscan; type: binding; settings: 1000 nM
PIK3CA(C420R) = experiment: KINOMEscan; type: binding; settings: 1000 nM
FLT3(N841I) = experiment: KINOMEscan; type: binding; settings: 1000 nM
CAMK1B = experiment: KINOMEscan; type: binding; settings: 1000 nM
MAST1 = experiment: KINOMEscan; type: binding; settings: 1000 nM
FLT3(D835V) = experiment: KINOMEscan; type: binding; settings: 1000 nM
PLK1 = experiment: KINOMEscan; type: binding; settings: 1000 nM
[2] = tested on: EGFR(L747-S752del, P753S); experiment: KINOMEscan; type: binding; settings: 1000 nM
MYLK4 = experiment: KINOMEscan; type: binding; settings: 1000 nM
PIK3C2B = experiment: KINOMEscan; type: binding; settings: 1000 nM
MST1 = experiment: KINOMEscan; type: binding; settings: 1000 nM
MAP3K1 = experiment: KINOMEscan; type: binding; settings: 1000 nM
PIP5K2B = experiment: KINOMEscan; type: binding; settings: 1000 nM
MELK = experiment: KINOMEscan; type: binding; settings: 1000 nM
PRKX = experiment: KINOMEscan; type: binding; settings: 1000 nM
ERK4 = experiment: KINOMEscan; type: binding; settings: 1000 nM
PIM3 = experiment: KINOMEscan; type: binding; settings: 1000 nM
PKN1 = experiment: KINOMEscan; type: binding; settings: 1000 nM
QSK = experiment: KINOMEscan; type: binding; settings: 1000 nM
DLK = experiment: KINOMEscan; type: binding; settings: 1000 nM
PKMYT1 = experiment: KINOMEscan; type: binding; settings: 1000 nM
MTOR = experiment: KINOMEscan; type: binding; settings: 1000 nM
AMPK-alpha2 = experiment: KINOMEscan; type: binding; settings: 1000 nM
PAK1 = experiment: KINOMEscan; type: binding; settings: 1000 nM
SIK2 = experiment: KINOMEscan; type: binding; settings: 1000 nM
PIK3CA(E542K) = experiment: KINOMEscan; type: binding; settings: 1000 nM
FGFR2 = experiment: KINOMEscan; type: binding; settings: 1000 nM
WNK4 = experiment: KINOMEscan; type: binding; settings: 1000 nM
LATS2 = experiment: KINOMEscan; type: binding; settings: 1000 nM
LCK = experiment: KINOMEscan; type: binding; settings: 1000 nM

SMILES: C=CC(=O)Nc1cc(Nc2cc(-c3cccc(NC(=O)c4cc5c(s4)CCCC5)c3C)cn(C)c2=O)ccc1N1CCN(CC)CC1 [CHMFL-BTK-85]
- Percent Control (IKK-alpha): 100%
- Percent Control (FER): 83%
- Percent Control (p38-beta): 89%
- Percent Control (FGFR4): 92%
- Percent Control (FLT3(R834Q)): 100%
- inhibition of Herceptin-induced IFN-γ secretion in NK cells [1]: no apparent inhibition
- Percent Control (ERN1): 100%
- Percent Control (AURKB): 100%
- Percent Control (LZK): 100%
- Percent Control (CAMK2D): 75%
- Percent Control (EPHA3): 98%
- Percent Control (NEK9): 100%
- effect on antibody-dependent NK-cell-mediated cytotoxicity (ADCC) (Mino cells): did not affect
- Percent Control (YES): 17%
- Percent Control (AXL): 100%
- Percent Control (EPHA2): 87%
- Percent Control (PIK3CA(C420R)): 98%
- Percent Control (FLT3(N841I)): 83%
- Percent Control (CAMK1B): 100%
- Percent Control (MAST1): 100%
- Percent Control (FLT3(D835V)): 11%
- Percent Control (PLK1): 100%
- Percent Control [2]: 100%
- Percent Control (MYLK4): 94%
- Percent Control (PIK3C2B): 92%
- Percent Control (MST1): 100%
- Percent Control (MAP3K1): 99%
- Percent Control (PIP5K2B): 100%
- Percent Control (MELK): 99%
- Percent Control (PRKX): 95%
- Percent Control (ERK4): 100%
- Percent Control (PIM3): 80%
- Percent Control (PKN1): 70%
- Percent Control (QSK): 100%
- Percent Control (DLK): 100%
- Percent Control (PKMYT1): 63%
- Percent Control (MTOR): 100%
- Percent Control (AMPK-alpha2): 89%
- Percent Control (PAK1): 75%
- Percent Control (SIK2): 83%
- Percent Control (PIK3CA(E542K)): 99%
- Percent Control (FGFR2): 77%
- Percent Control (WNK4): 82%
- Percent Control (LATS2): 100%
- Percent Control (LCK): 86%
